Experimental data reported in patent publication US20100120715A1, “BETA-LACTAMASE INHIBITORS” (priority 2007, published 2010).
Like-named read-outs stand apart in the source and are kept apart here.

Legend:
[1] = test system: E. cloacae expressing the Class C P99+ AmpC; experiment: microbe, parasite or virus in culture; format: cell-based; settings: for MIC of example compound, E. cloacae P99 AmpC + 8 μg/mL CAZ: in the presence of fixed 8 μg/mL Ceftazidime
From the text: (§1) To determine the ability of test compounds to potentiate the inhibition of the growth of bacterial strains producing beta-lactamase enzymes, classic cell based screening assays were employed. Four bacteria strains producing beta-lactamase enzymes were used: K. pneumoniae expressing the Class A Extended Spectrum Beta-Lactamase (ESBL) CTX-M-15, E. coli expressing the Class A ESBL SHV-5, E. cloacae expressing the Class C P99+, and K. pneumoniae expressing the Class A carbapenemase KPC-2. In order to evaluate the ability of test compounds to inhibit beta-lactamase activity, Applicants used a modification of the broth microdilution assay. The assay was conducted in Cation Adjusted Mueller Hinton Broth (CAMHB, BD # 212322, BD Diagnostic Systems, Sparks, Md.). Bacteria strains were grown for 3-5 hours in CAMBH broth. All four strains were grown in presence of 50 μg/mL ampicillin to ensure resistance is maintained. In the meantime, test compounds were diluted in DMSO to a 0.1 mg/mL stock. The compounds were added to a microtiter plate and were diluted in 2-fold serial dilutions in CAMHB in a final concentration range of 8 μg/mL to 0.015 μg/ml. An overlay of CAMHB containing a cephalosporin was added to the compounds at a final static concentration of 8 μg/ml. […] Each of these compound plates are made in quadruplicate, one for each bacteria strain. In addition to the titration of test compounds the MICs of a panel of cephalosporins is also tested to ensure the strains are behaving consistently from test to test. Once the test compound and cephalosporin are added the plates can be inoculated. Inocula are conducted according to CLSI broth microdilution method. After inoculation the plates are incubated for 16-20 hours at 37° C. then the Minimal Inhibitory Concentration (MIC) of the test compound is determined visually.

[2] = test system: E. coli expressing the Class A ESBL SHV-5; experiment: microbe, parasite or virus in culture; format: cell-based; settings: for MIC of example compound, E. coli SHV-5 + 8 μg/mL CAZ: in the presence of fixed 8 μg/mL Ceftazidime
From the text: as §1

[3] = test system: K. pneumoniae expressing the Class A ESBL CTX-M-15; experiment: microbe, parasite or virus in culture; format: cell-based; settings: for MIC of example compound, K. pneumoniae CTX-M-15 + 8 μg/mL CAZ: in the presence of fixed 8 μg/mL Ceftazidime
[4] = test system: K. pneumoniae expressing the Class A carbapenemase KPC-2; experiment: microbe, parasite or virus in culture; settings: for MIC of example compound, K. pneumoniae KPC-2 + 8 μg/mL CAZ: in the presence of fixed 8 μg/mL Ceftazidime
Class A ESBL SHV-5 = target: T1, Class A ESBL SHV-5 (Klebsiella pneumoniae, UniProt P0A3M1); format: biochemical, E. coli; settings: nitrocefin 100 μM, PBS pH 7.0, read-out: SHV-5 IC50 Range
T1 construct: made in house; host or cells: E. coli BL21(DE3) for purified enzyme; E. coli cells containing SHV-5 for extracts

Class A ESBL CTXM-15 = target: T2, Class A ESBL CTXM-15 (Escherichia coli, UniProt Q9EXV5); experiment: β-lactamase enzyme inhibition (nitrocefin hydrolysis), CTXM-15; format: biochemical; settings: purified enzyme; nitrocefin 100 μM, PBS pH 7.0; read-out: CTXM-15 IC50 Range
T2 construct: made in house; host or cells: E. coli BL21(DE3)
Procedure, shortened: (§2)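 Native untagged enzymes were expressed in E. coli BL21(DE3) and purified by cation exchange and gel filtration. Compound series (100–0.005 μM in PBS pH 7.0, before addition of an equal enzyme volume) were preincubated with enzyme 10 min at 37°C. Nitrocefin (100 μM final) hydrolysis was read kinetically at 486 nm for 10 min, and IC50 was taken as 50% reduction of initial rate versus no-inhibitor wells.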

Class C P99 AmpC = target: T3, Class C P99 AmpC (Enterobacter cloacae, UniProt P05364); format: biochemical; settings: purified enzyme; nitrocefin 100 μM, PBS pH 7.0; read-out: P99 AmpC IC50 Range
T3 construct: made in house; host or cells: E. coli BL21(DE3)
Procedure, shortened: as §2

[5] = target: T4, Class A carbapenemase KPC-2 (Klebsiella pneumoniae, UniProt Q9F663); experiment: β-lactamase enzyme inhibition (nitrocefin hydrolysis), KPC-2; format: biochemical; settings: purified enzyme; nitrocefin 100 μM, PBS pH 7.0; read-out: KPC-2 IC50 Range
T4 construct: made in house; host or cells: E. coli BL21(DE3)
Procedure, shortened: as §2

[6] = Klebsiella pneumoniae, read-out: MIC alone
[7] = cellular extracts of E. coli containing SHV-5 (Examples 2-30)
[8] = purified beta-lactamase enzyme (Examples 1 and 31-64)

T4 sequence (Q9F663 25-293 limits assumed): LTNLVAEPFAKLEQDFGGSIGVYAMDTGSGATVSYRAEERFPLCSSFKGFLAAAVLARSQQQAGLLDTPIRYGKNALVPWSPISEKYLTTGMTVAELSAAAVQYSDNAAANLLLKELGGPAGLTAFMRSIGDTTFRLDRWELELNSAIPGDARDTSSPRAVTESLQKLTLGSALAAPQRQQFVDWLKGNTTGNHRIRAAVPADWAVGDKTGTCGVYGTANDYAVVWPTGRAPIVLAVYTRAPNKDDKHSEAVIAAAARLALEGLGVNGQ
T1 sequence (P0A3M1 22-286): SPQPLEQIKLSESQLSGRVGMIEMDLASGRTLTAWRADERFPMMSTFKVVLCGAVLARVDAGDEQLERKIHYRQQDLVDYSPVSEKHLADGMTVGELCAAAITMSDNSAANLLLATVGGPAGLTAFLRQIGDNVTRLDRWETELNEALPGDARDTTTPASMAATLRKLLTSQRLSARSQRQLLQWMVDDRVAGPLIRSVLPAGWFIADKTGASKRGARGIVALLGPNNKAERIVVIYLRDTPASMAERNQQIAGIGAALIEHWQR
T2 sequence (Q9EXV5 entry or part of it): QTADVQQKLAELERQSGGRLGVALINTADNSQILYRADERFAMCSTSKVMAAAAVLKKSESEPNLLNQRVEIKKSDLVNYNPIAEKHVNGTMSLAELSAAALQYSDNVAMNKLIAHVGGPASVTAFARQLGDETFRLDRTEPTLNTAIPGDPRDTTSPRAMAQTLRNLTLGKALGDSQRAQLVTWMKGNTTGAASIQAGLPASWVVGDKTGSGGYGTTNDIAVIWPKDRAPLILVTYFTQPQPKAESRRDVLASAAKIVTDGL
T3 sequence (P05364 21-381): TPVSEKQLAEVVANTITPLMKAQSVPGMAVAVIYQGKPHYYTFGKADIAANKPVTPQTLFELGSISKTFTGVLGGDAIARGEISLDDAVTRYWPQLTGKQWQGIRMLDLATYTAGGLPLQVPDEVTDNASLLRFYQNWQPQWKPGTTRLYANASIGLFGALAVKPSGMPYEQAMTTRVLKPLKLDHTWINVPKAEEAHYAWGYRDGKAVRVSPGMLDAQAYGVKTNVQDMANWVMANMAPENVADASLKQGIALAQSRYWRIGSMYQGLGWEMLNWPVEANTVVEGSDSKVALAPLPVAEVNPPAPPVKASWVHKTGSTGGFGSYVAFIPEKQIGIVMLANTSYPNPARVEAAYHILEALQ

Row | SMILES | MIC ([1]; Enterobacter cloacae, read-out: MIC alone) | MIC ([2]; Escherichia coli, read-out: MIC alone) | MIC [3, 6] | MIC [4, 6] | IC50 (Class A ESBL SHV-5; [7]) | IC50 (Class A ESBL CTXM-15) | IC50 (Class C P99 AmpC) | MIC of example compound, E. cloacae P99 AmpC + 8 μg/mL CAZ [1] | MIC of example compound, E. coli SHV-5 + 8 μg/mL CAZ [2] | MIC of example compound, K. pneumoniae CTX-M-15 + 8 μg/mL CAZ [3] | MIC of example compound, K. pneumoniae KPC-2 + 8 μg/mL CAZ [4] | IC50 [5] | IC50 (Class A ESBL SHV-5; [8])
1 | CC(C)(O/N=C(\C(=O)N[C@@H]1C(=O)N2C(C(=O)[O-])=C(C[n+]3ccccc3)CS[C@H]12)c1csc(N)n1)C(=O)O [Ceftazidime, reference compound] | 128 µg/mL | > 1020 µg/mL | 128 µg/mL | 32 µg/mL |  |  |  |  |  |  |  |  | 
2 | Cl.NCCOc1cccc(CC(=O)N[C@@H](Cc2cccc(C(=O)O)c2O)B(O)O)c1 [Example 4, (1R)-1-[3-(2-amino)-ethoxy-phenyl]acetylamino-1-(3-carboxy-2-hydroxy)benzyl-methylboronic acid hydrochloride] |  |  |  |  | < 10 nM | < 10 nM | < 10 nM | C (C represents an MIC of <1 μg/mL) | C (C represents an MIC of <1 μg/mL) | C (C represents an MIC of <1 μg/mL) | C (C represents an MIC of <1 μg/mL) |  | 
3 | O=C(Cc1ccccc1)N[C@@H](Cc1cccc(C(=O)O)c1O)B(O)O [Example 10, (1R)-1-(2-phenylacetylamino)-2-(2-hydroxy-3-carboxyphenyl)ethyl-1-boronic acid] |  |  |  |  | < 10 nM | < 10 nM | < 10 nM | C (C represents an MIC of <1 μg/mL) | C (C represents an MIC of <1 μg/mL) | C (C represents an MIC of <1 μg/mL) | C (C represents an MIC of <1 μg/mL) |  | 
4 | CCC(=O)N[C@@H](Cc1cccc(C(=O)O)c1O)B(O)O [Example 16, (1R)-1-(propionylamino)-2-(2-hydroxy-3-carboxyphenyl)ethyl-1-boronic acid] |  |  |  |  | 100 to 1000 nM | 10 to 100 nM | 10 to 100 nM | C (C represents an MIC of <1 μg/mL) |  | C (C represents an MIC of <1 μg/mL) | C (C represents an MIC of <1 μg/mL) | 10 to 100 nM | 
5 | COc1ccc(OC)c(CC(=O)N[C@@H](Cc2cccc(C(=O)O)c2O)B(O)O)c1 [Example 17, (1R)-1-(2-(2,5-dimethoxyphenyl)-acetylamino)-2-(2-hydroxy-3-carboxyphenyl)ethyl-1-boronic acid] |  |  |  |  | < 10 nM | < 10 nM | < 10 nM | C (C represents an MIC of <1 μg/mL) | A (A represents an MIC >8 μg/mL) | C (C represents an MIC of <1 μg/mL) |  | < 10 nM | 
6 | O=C(O)c1cccc(C[C@H](NC(=O)C2CC2)B(O)O)c1O [Example 20, (1R)-1-Cyclopropanecarbonyl-amino-1-(3-carboxy-2-hydroxy)benzyl-methylboronic acid] |  |  |  |  | 100 to 1000 nM | < 10 nM | < 10 nM | C (C represents an MIC of <1 μg/mL) |  | C (C represents an MIC of <1 μg/mL) | C (C represents an MIC of <1 μg/mL) | 10 to 100 nM | 
7 | O=C(N[C@@H](Cc1cccc(C(=O)O)c1O)B(O)O)c1ccc(F)cc1 [Example 26, (1R)-1-(4-Fluorobenzoylamino)-(3-carboxy-2-hydroxy)benzyl-methylboronic acid] |  |  |  |  | 10 to 100 nM | < 10 nM | < 10 nM | C (C represents an MIC of <1 μg/mL) |  | C (C represents an MIC of <1 μg/mL) | C (C represents an MIC of <1 μg/mL) | < 10 nM | 
8 | O=C(N[C@@H](Cc1cccc(C(=O)O)c1O)B(O)O)c1ccc(O)cc1 [Example 36, (1R)-1-(4-Hydroxybenzoyl)-amino-1-(3-carboxy-2-hydroxy)benzyl-methylboronic acid] |  |  |  |  |  | < 10 nM | < 10 nM | C (C represents an MIC of <1 μg/mL) |  | C (C represents an MIC of <1 μg/mL) | C (C represents an MIC of <1 μg/mL) | < 10 nM | 100 to 1000 nM
9 | CC(=O)NCC(=O)N[C@@H](Cc1cccc(C(=O)O)c1O)B(O)O [Example 37, (1R)-1-(2-acetamidoacetylamino)-2-(2-hydroxy-3-carboxyphenyl)ethyl-1-boronic acid] |  |  |  |  |  | 10 to 100 nM | 10 to 100 nM | C (C represents an MIC of <1 μg/mL) |  | C (C represents an MIC of <1 μg/mL) | C (C represents an MIC of <1 μg/mL) | 10 to 100 nM | 10 to 100 nM
10 | O=C(N[C@@H](Cc1cccc(C(=O)O)c1O)B(O)O)c1ccno1 [Example 46, (1R)-1-(isoxazole-5-carbonyl-amino)-2-(2-hydroxy-3-carboxyphenyl)ethyl-1-boronic acid] |  |  |  |  |  | < 10 nM | < 10 nM | C (C represents an MIC of <1 μg/mL) |  | C (C represents an MIC of <1 μg/mL) | C (C represents an MIC of <1 μg/mL) | 10 to 100 nM | < 10 nM
11 | CC(=O)N1CCC(C(=O)N[C@@H](Cc2cccc(C(=O)O)c2O)B(O)O)CC1 [Example 49, (1R)-1-(1-Acetyl-piperidine-4-carbonyl)-amino-1-(3-carboxy-2-hydroxy)benzyl-methylboronic acid] |  |  |  |  |  | 10 to 100 nM | 10 to 100 nM | C (C represents an MIC of <1 μg/mL) |  | C (C represents an MIC of <1 μg/mL) | C (C represents an MIC of <1 μg/mL) | < 10 nM | 100 to 1000 nM
12 | O=C(N[C@@H](Cc1cccc(C(=O)O)c1O)B(O)O)c1cnc2ccccc2n1 [Example 54, (1R)-1-(Quinoxaline-2-carbonyl-amino)-2-(2-hydroxy-3-carboxyphenyl)ethyl-1-boronic acid] |  |  |  |  |  | < 10 nM | < 10 nM | A (A represents an MIC >8 μg/mL) | A (A represents an MIC >8 μg/mL) | A (A represents an MIC >8 μg/mL) |  | < 10 nM | 10 to 100 nM
